Experimental findings from EPA's ToxRefDB 2 are described below.

Molecules are shown by their SMILES.

Data set [1] has as its system rat. The conditions noted are these: Subchronic oral toxicity in rodents, sprague dawley, Water, dose end: 90 day, group: systemic.
Data set [2] concerns dog. To be noted: Chronic toxicity, beagle, Oral, Feed, dose end: 52 week, group: systemic.
The subject of data set [3] is mouse. The conditions noted are these: Carcinogenicity, cd1, Oral, Feed, dose end: 99 week, group: systemic.
The test system of data set [4] is rat. To be noted: Subchronic oral toxicity in rodents, sprague dawley, Feed, dose end: 13 week.
Data set [5] has as its system rat. The conditions noted are these: Multigenerational reproductive toxicity study, CRL:CD BR/VAF/PLUS, Oral, Feed, dose end: 2 generation.
Another data set has as its system rabbit. To be noted: Prenatal developmental toxicity study, new zealand white, Oral, Gavage/Intubation, dose end: 18 GD.
Data set [6] relates to rat. To be noted: Combined chronic toxicity/carcinogenicity, sprague dawley, Oral, Feed, dose end: 2 year, group: systemic.
Data set [7] deals with rat. The conditions noted are these: Subchronic oral toxicity in rodents, other, Feed, dose end: 90 day, group: systemic, systemic / in life observation / food consumption / food consumption.
Data set [8] deals with dog. To be noted: Subchronic oral toxicity in nonrodent, beagle, Capsule, dose end: 90 day, group: systemic, systemic / clinical chemistry / alkaline phosphatase (alp/alk) / alkaline phosphatase (alp/alk) + systemic / pathology microscopic / liver….
Data set [9] concerns rat. To be noted: Combined chronic toxicity/carcinogenicity, other, Oral, Feed, dose end: 24 month, group: systemic.
Data set [10] concerns dog. The conditions noted are these: Chronic toxicity, beagle, Oral, Feed, dose end: 52 week, group: systemic. The source holds these as a separate data set.
Data set [11] concerns dog. The conditions noted are these: Subchronic oral toxicity in nonrodent, beagle, Feed, dose end: 13 week, group: systemic, systemic / in life observation / body weight / body weight gain.
For data set [12], the system named is rat. The conditions noted are these: Subchronic oral toxicity in rodents, sprague dawley, Feed, dose end: 3 month, group: systemic, systemic / organ weight / liver / relative to body weight + systemic / pathology microscopic / liver / hypertrophy + systemic / pathology ….
Data set [13] has as its system mouse. To be noted: Subchronic oral toxicity in rodents, cd1, Feed, dose end: 13 week, group: systemic, systemic / in life observation / body weight / body weight gain.
The test system of data set [14] is mouse. To be noted: Carcinogenicity, cd1, Oral, Feed, dose end: 18 month, group: systemic.
Data set [15] relates to rat. The conditions noted are these: Subchronic oral toxicity in rodents, sprague dawley, Gavage/Intubation, dose end: 90 day, group: systemic.
Setting [16] is: systemic / clinical chemistry / cholesterol / cholesterol + systemic / in life observation / mortality / mortality + systemic / pathology ….
Where [17] appears, read: systemic / hematology / heinz body / heinz body + systemic / organ weight / prostate / absolute.
Where [18] appears, read: systemic / hematology / heinz body / heinz body + systemic / organ weight / prostate / absolute + systemic / clinical chemistry / alanine ….
[19] abbreviates: systemic / pathology microscopic / testes / hypertrophy + systemic / pathology microscopic / testes / vacuolization + systemic / pathology ….
[20] abbreviates: group: maternal, reproductive / reproductive performance / estrous cycle / corpora lutea.
[21] abbreviates: group: systemic, systemic / in life observation / body weight / body weight + systemic / in life observation / food consumption / food consumption + systemic….
Where [22] appears, read: group: systemic, systemic / organ weight / liver / nos.
The mark [23] stands for this setting: group: offspring, developmental / offspring survival late / lactation index / lactation index + developmental / offspring survival late / [other] / [other] + ….
[24] abbreviates: group: parental, systemic / in life observation / body weight / body weight gain + systemic / in life observation / food consumption / food consumption.
The mark [25] stands for this setting: group: parental, systemic / in life observation / body weight / body weight gain + systemic / in life observation / food consumption / food consumption + ….
Setting [26] is: group: developmental, developmental / developmental malformation / bone / delayed ossification + developmental / developmental malformation / bone / full ….
The mark [27] stands for this setting: group: maternal, systemic / in life observation / body weight / body weight gain.
Where [28] appears, read: group: maternal, systemic / in life observation / body weight / body weight gain + reproductive / reproductive performance / aborted / aborted + reproductive….
The mark [29] stands for this setting: systemic / pathology microscopic / adrenal gland / vacuolization + systemic / organ weight / thyroid gland / relative to body weight + ….
Where [30] appears, read: systemic / clinical chemistry / gamma glutamyl transferase (ggt) / gamma glutamyl transferase (ggt) + systemic / clinical chemistry / ….
[31] abbreviates: systemic / hematology / anemia / anemia - hemolytic + systemic / hematology / methemoglobin / methemoglobin + systemic / hematology / ….
Setting [32] is: systemic / hematology / lymphocyte / lymphocyte + systemic / organ weight / kidney / nos + systemic / organ weight / testes / nos + systemic….
[33] abbreviates: systemic / organ weight / testes / nos.
Where [34] appears, read: systemic / clinical chemistry / globulins / globulins + systemic / clinical chemistry / protein / protein + systemic / hematology / ….
Where [35] appears, read: systemic / in life observation / body weight / body weight + systemic / in life observation / food consumption / food consumption.

A word on the LOAEL: it is the lowest dose or exposure tested at which an adverse effect was seen. As a reminder, the NOAEL is the highest dose or exposure tested at which no adverse effect was seen.

Consider `CC(Cl)C(Cl)Cl` (stereo not given) [1,1,2-Trichloropropane], for which, in the data set on rat [1] (setting [16]), the LOAEL is more than 50 mg/kg/day, the NEL is 0.5 mg/kg/day and the NOAEL is not below 50 mg/kg/day. This compound also returned an LEL in the data set with rat [1] (systemic / in life observation / mortality / mortality) of 5 mg/kg/day.

`CC(C)NC(=O)N1CC(=O)N(c2cc(Cl)cc(Cl)c2)C1=O` [Iprodione]: the LEL with dog [2] (setting [17]) stood at 24.9 mg/kg/day; in the data set with mouse [3] (setting [19]), 115 mg/kg/day; in the data set with rat [4] (setting [20]), 184 mg/kg/day; in the data set with rat [4] (setting [22]), 89 mg/kg/day; in the data set on rat [5] (setting [23]), 158 mg/kg/day; with rat [5] (setting [24]) it was 54.7 mg/kg/day. In addition, the LEL in the data set with rabbit (setting [26]) is 200 mg/kg/day; in the data set on rabbit (setting [27]), 60 mg/kg/day; with rat [6] (setting [29]) it was 6.1 mg/kg/day; in the data set with rat [7], 25 mg/kg/day; in the data set on dog [8], 180 mg/kg/day. The LOAEL in the data set on dog [2] (setting [17]) stood at 24.9 mg/kg/day; with mouse [3] (systemic / pathology microscopic / testes / hypertrophy + systemic / pathology microscopic / testes / vacuolization), 115 mg/kg/day; in the data set on rat [4] (setting [20]), 184 mg/kg/day; in the data set with rat [4] (setting [21]), 151 mg/kg/day; with rat [5] (setting [23]), 158 mg/kg/day; with rat [5] (setting [24]), 54.7 mg/kg/day. Further, the LOAEL is 200 mg/kg/day with rabbit (setting [26]); 60 mg/kg/day in the data set on rabbit (setting [27]); 12.4 mg/kg/day with rat [6] (systemic / pathology microscopic / liver / hypertrophy + systemic / organ weight / liver / absolute + systemic / organ weight / liver / …); more than 50 mg/kg/day in the data set on rat [7]; 180 mg/kg/day with dog [8]. For the same compound, the NEL was 4.12 mg/kg/day with dog [2] (setting [18]); 23 mg/kg/day with mouse [3] (setting [19]); 89 mg/kg/day in the data set with rat [4] (setting [20]); less than 89 mg/kg/day with rat [4] (setting [22]); 54.7 mg/kg/day with rat [5] (setting [23]); 16.5 mg/kg/day in the data set with rat [5] (setting [25]). The NEL was 60 mg/kg/day in the data set with rabbit (setting [26]); 20 mg/kg/day in the data set on rabbit (setting [28]); less than 6.1 mg/kg/day with rat [6] (setting [29]); 7.5 mg/kg/day in the data set with rat [7]; 60 mg/kg/day in the data set with dog [8]. Also, the NOAEL in the data set on dog [2] (setting [18]) was 4.12 mg/kg/day; with mouse [3] (setting [19]), 23 mg/kg/day; with rat [4] (setting [20]), 89 mg/kg/day; in the data set on rat [4] (setting [21]), 78 mg/kg/day; in the data set with rat [5] (setting [23]), 54.7 mg/kg/day; in the data set on rat [5] (setting [25]) it was 16.5 mg/kg/day. Further, the no observed adverse effect level (NOAEL) in the data set with rabbit (setting [26]) is 60 mg/kg/day; with rabbit (setting [28]), 20 mg/kg/day; with rat [6] (systemic / pathology microscopic / liver / hypertrophy + systemic / pathology microscopic / adrenal gland / rarefaction + systemic / …), 6.1 mg/kg/day; in the data set with rat [7], not below 50 mg/kg/day; in the data set with dog [8], 60 mg/kg/day.

For `COc1cccc(C(=O)NN(C(=O)c2cc(C)cc(C)c2)C(C)(C)C)c1C` [Methoxyfenozide], the LEL in the data set on rat [9] (setting [30]) turned out to be 411 mg/kg/day; with dog [10] (systemic / hematology / platelet / platelet + systemic / hematology / erythrocyte (rbc) count differential / erythrocyte (rbc)), 106 mg/kg/day; with dog [11], 0.6 mg/kg/day; in the data set on rat [12], 353 mg/kg/day; in the data set with mouse [13], 1150 mg/kg/day; with mouse [14] (setting [33]), 10 mg/kg/day. Besides, the NEL was 10.2 mg/kg/day in the data set with rat [9] (setting [30]); 9.8 mg/kg/day in the data set with dog [10] (setting [31]); less than 0.6 mg/kg/day in the data set with dog [11]; 69.3 mg/kg/day with rat [12]; 428 mg/kg/day with mouse [13]; less than 10 mg/kg/day in the data set with mouse [14] (setting [33]). Moreover, the LOAEL in the data set with rat [9] (systemic / in life observation / mortality / mortality + systemic / organ weight / liver / absolute + systemic / organ weight / liver / …) is 1040 mg/kg/day; in the data set on dog [10] (setting [31]), 1150 mg/kg/day; in the data set with dog [11], more than 198 mg/kg/day; in the data set on rat [12], 353 mg/kg/day; in the data set on mouse [13], 1150 mg/kg/day; in the data set with mouse [14] (setting [32]) it was more than 1020 mg/kg/day. In addition, the NOAEL is 106 mg/kg/day with dog [10] (setting [31]); not below 198 mg/kg/day in the data set with dog [11]; 69.3 mg/kg/day with rat [12]; 428 mg/kg/day in the data set with mouse [13]; not below 1020 mg/kg/day with mouse [14] (setting [32]).

For the compound `O=C(O)C(F)(F)C(F)(F)C(F)(F)C(F)(F)C(F)(F)F` [PFHxA], in the data set on rat [15] (setting [34]), the lowest-observed-adverse-effect level (LOAEL) was more than 200 mg/kg/day and the no-observed-adverse-effect level (NOAEL) was not below 200 mg/kg/day. Moreover, in the data set with rat [15] (setting [35]), the LEL stood at 10 mg/kg/day and the NEL is less than 10 mg/kg/day.
